Measurements published in patent US10781204B2, “TYK2 inhibitors and uses thereof” (Nimbus Lakshmi, Inc., priority 2015, dated 2020).

What was measured:
TYK2 = TYK2 (Homo sapiens (Human), UniProt P29597); assay: Tyk2 radioactive kinase assay; format: biochemical; conditions: ATP 10 μM
Description: (§1) Peptide substrate, [KKSRGDYMTMQIG], (20 μM) is prepared in reaction buffer (20 mM Hepes pH 7.5, 10 mM MgCl2, 1 mM EGTA, 0.02% Brij35, 0.02 mg/mL BSA, 0.1 mM […], 2 mM DTT, 1% DMSO. TYK2 (Invitrogen) kinase is added, followed by compounds in DMSO. ^33PATP is added to initiate the reaction with ATP at 10 μM. Kinase reaction is incubated for 120 min at room temp and reactions are spotted onto P81 ion exchange paper (Whatman #3698-915), and then washed extensively in 0.75% phosphoric acid, prior to reading the radioactivity counts. For JAK2 (Invitrogen) kinase assay the peptide substrate poly[Glu:Tyr] (4:1), 0.2 mg/ml is used, in the reaction carried out the same as for TYK2.

JAK2 = JAK2 (Homo sapiens (Human), UniProt O60674); assay: JAK2 radioactive kinase assay; format: biochemical; conditions: ATP 10 μM
JAK2, sequence (O60674 whole entry): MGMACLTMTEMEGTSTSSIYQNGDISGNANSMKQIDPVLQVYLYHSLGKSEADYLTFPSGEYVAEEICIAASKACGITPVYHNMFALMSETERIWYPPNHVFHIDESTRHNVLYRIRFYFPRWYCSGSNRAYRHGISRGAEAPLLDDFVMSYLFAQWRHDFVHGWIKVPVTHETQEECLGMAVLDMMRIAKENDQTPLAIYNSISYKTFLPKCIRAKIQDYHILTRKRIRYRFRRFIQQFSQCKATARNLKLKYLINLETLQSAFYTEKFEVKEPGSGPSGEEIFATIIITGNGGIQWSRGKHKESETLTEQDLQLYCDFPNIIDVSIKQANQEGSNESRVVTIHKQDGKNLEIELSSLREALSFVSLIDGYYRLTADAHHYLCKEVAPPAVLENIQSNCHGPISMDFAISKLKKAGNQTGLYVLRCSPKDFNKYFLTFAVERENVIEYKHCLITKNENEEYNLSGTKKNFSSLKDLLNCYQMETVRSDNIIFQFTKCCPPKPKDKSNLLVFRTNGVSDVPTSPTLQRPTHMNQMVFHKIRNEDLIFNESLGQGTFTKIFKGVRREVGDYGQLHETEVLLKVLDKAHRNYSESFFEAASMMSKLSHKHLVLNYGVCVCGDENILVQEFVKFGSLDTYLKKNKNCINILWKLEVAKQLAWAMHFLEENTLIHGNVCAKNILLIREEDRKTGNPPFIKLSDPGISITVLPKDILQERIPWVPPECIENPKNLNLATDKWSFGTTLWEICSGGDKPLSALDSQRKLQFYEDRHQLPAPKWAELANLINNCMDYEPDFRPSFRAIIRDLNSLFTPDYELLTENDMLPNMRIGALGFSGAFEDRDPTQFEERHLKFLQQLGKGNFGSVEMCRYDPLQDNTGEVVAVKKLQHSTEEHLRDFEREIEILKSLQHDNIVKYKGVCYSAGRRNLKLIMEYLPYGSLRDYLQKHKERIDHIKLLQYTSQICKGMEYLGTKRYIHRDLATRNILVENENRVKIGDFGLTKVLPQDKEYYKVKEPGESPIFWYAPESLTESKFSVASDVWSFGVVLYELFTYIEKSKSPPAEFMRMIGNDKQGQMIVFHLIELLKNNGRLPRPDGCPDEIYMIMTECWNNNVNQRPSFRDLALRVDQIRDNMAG
Description: as §1

[1] = test system: Tyk2-pSTAT4 (IL-12 induced pSTAT4); assay: IL-12 induced pSTAT4 in human PBMC; format: cell-based; conditions: Homo sapiens, PBMC, 0.5 h, 1.7 ng/mL IL-12, 30 minutes
Description: Human PBMC are isolated from buffy coat and are stored frozen for assays as needed. Cells for assay are thawed and resuspended in complete media containing serum, then cells are diluted to 1.67 E6 cells/ml so that 120 ul per well is 200,000 cells. 15 ul of compound or DMSO is added to the well at the desired concentrations and incubated at 1 hr at 37 C. 15 ul of stimulus (final concentration of 1.7 ng/mL IL-12) is added for 30 minutes prior to pSTAT4 and total STAT4 analysis using cell lysates prepared and analyzed by MSD reagents as per manufacturer protocol. The final DMSO concentration of compound in the assay is 0.1%.

TYK2, sequence (P29597 whole entry): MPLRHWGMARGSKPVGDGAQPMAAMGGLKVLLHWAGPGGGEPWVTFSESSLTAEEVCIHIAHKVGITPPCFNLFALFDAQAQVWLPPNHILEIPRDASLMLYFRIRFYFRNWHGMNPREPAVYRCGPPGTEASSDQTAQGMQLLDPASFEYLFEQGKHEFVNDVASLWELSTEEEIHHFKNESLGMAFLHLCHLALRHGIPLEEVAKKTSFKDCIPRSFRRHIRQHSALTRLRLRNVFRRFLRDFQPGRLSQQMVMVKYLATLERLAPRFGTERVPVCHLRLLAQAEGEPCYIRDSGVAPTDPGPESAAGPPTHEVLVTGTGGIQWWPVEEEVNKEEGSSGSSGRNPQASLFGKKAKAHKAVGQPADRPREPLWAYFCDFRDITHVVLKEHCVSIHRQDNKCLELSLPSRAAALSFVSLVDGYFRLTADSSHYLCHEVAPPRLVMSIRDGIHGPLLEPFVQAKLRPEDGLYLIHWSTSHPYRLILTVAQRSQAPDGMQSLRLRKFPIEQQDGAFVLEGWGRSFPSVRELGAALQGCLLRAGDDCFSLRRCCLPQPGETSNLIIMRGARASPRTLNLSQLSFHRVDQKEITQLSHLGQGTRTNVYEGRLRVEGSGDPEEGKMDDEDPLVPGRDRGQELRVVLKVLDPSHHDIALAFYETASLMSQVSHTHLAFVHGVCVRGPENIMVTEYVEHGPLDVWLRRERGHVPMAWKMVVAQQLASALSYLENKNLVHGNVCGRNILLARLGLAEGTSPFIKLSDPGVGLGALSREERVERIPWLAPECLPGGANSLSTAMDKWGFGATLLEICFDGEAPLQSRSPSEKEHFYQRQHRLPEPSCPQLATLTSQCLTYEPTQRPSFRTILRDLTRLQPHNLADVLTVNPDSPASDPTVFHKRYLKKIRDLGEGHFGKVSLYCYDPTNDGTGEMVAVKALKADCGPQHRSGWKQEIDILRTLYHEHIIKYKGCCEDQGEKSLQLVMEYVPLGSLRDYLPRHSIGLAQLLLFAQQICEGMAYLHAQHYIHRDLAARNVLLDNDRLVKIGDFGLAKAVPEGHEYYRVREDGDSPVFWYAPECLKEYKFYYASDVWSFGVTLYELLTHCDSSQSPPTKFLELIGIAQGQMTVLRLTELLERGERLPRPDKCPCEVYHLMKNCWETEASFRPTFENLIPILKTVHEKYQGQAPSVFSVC

| Ki (TYK2) [nM] | Ki (JAK2) [nM] | EC50 [1] [nM] | SMILES |
| --- | --- | --- | --- |
| 0.1 to 10 | 0.1 to 10 | 100 to 2000 | CS(=O)(=O)N[C@@H]1CCN(c2ccn(-c3cc(-c4c(F)cccc4C#N)nc4c3C(=O)NC4)n2)C1 [I-134, (R)-N-(1-(1-(2-(2-cyano-6-fluorophenyl)-5-oxo-6,7-dihydro-5H-pyrrolo[3,4-b]pyridin-4-yl)-1H-pyrazol-3-yl)pyrrolidin-3-yl)methanesulfonamide] |
| 0.1 to 10 | 10 to 100 | 100 to 2000 | CC(C)n1cc(-c2cc(-c3c(F)cccc3C#N)nc3c2C(=O)NC3)cn1 [I-61, 3-fluoro-2-(4-(1-isopropyl-1H-pyrazol-4-yl)-5-oxo-6,7-dihydro-5H-pyrrolo[3,4-b]pyridin-2-yl)benzonitrile] |
| 0.1 to 10 | 10 to 100 | 100 to 2000 | N#Cc1cccc(F)c1-c1cc(-n2ccc(N3CC[C@@](O)(C(=O)N4CCCC4)C3)n2)c2c(n1)CNC2=O [I-197, (S)-3-fluoro-2-(4-(3-(3-hydroxy-3-(pyrrolidine-1-carbonyl)-pyrrolidin-1-yl)-1H-pyrazol-1-yl)-5-oxo-6,7-dihydro-5H-pyrrolo[3,4-b]pyridin-2-yl)benzonitrile] |
| 0.1 to 10 | 10 to 100 | 100 to 2000 | N#Cc1cccc(F)c1-c1cc(-n2ccc(N3CC[C@]4(C3)OC[C@@H](O)CO4)n2)c2c(n1)CNC2=O [I-222, 3-fluoro-2-(4-(3-((5s,8s)-8-hydroxy-6,10-dioxa-2-azaspiro[4.5]decan-2-yl)-1H-pyrazol-1-yl)-5-oxo-6,7-dihydro-5H-pyrrolo[3,4-b]pyridin-2-yl)benzonitrile] |
| 0.1 to 10 | 100 to 1000 | 100 to 2000 | N#Cc1cccc(F)c1-c1cc(-n2ccc(N3CCNC(=O)C3)n2)c2c(n1)CNC2=O [I-175, 3-fluoro-2-(5-oxo-4-(3-(3-oxopiperazin-1-yl)-1H-pyrazol-1-yl)-6,7-dihydro-5H-pyrrolo[3,4-b]pyridin-2-yl)benzonitrile] |
| 0.1 to 10 | 10 to 100 | 100 to 2000 | N#Cc1cccc(F)c1-c1cc(-n2ccc(N3CC[C@@H](O)[C@@H](O)C3)n2)c2c(n1)CNC2=O [I-105, 2-(4-(3-((3S,4R)-3,4-dihydroxypiperidin-1-yl)-1H-pyrazol-1-yl)-5-oxo-6,7-dihydro-5H-pyrrolo[3,4-b]pyridin-2-yl)-3-fluorobenzonitrile] |
| 0.1 to 10 | 10 to 100 | 30 to 100 | N#Cc1cccc(F)c1-c1cc(-n2ccc(N3CC[C@H](C#N)C3)n2)c2c(n1)CNC2=O [I-128, (S)-1-(1-(2-(2-cyano-6-fluorophenyl)-5-oxo-6,7-dihydro-5H-pyrrolo[3,4-b]pyridin-4-yl)-1H-pyrazol-3-yl)pyrrolidine-3-carbonitrile] |
| 0.1 to 10 | 100 to 1000 |  | O=C1NCc2nc(-c3c(F)cccc3F)cc(-n3ccc(N4CCOCC4)n3)c21 [I-1, 2-(2,6-difluorophenyl)-4-(3-morpholino-1H-pyrazol-1-yl)-6,7-dihydro-5H-pyrrolo[3,4-b]pyridin-5-one] |
| 0.1 to 10 | 0.1 to 10 | 100 to 2000 | [2H]C1([2H])N(c2ccn(-c3cc(-c4c(F)cccc4C#N)nc4c3C(=O)NC4)n2)C([2H])([2H])C([2H])(O)C1([2H])[2H] (centres unmarked) [I-194, 3-fluoro-2-(4-(3-(3-hydroxypyrrolidin-1-yl-2,2,3,4,4,5,5-d7)-1H-pyrazol-1-yl)-5-oxo-6,7-dihydro-5H-pyrrolo[3,4-b]pyridin-2-yl)benzonitrile] |
| 0.1 to 10 | 0.1 to 10 |  | CC1(O)CN(c2ccn(-c3cc(-c4c(F)cccc4C#N)nc4c3C(=O)NC4)n2)CC[C@H]1O (stereo partly drawn) [I-108, 2-(4-(3-((4R)-3,4-dihydroxy-3-methylpiperidin-1-yl)-1H-pyrazol-1-yl)-5-oxo-6,7-dihydro-5H-pyrrolo[3,4-b]pyridin-2-yl)-3-fluorobenzonitrile] |
| 0.1 to 10 | 10 to 100 | 30 to 100 | N#Cc1cccc(F)c1-c1cc(-n2ccc(N3CC[C@@H](C#N)C3)n2)c2c(n1)CNC2=O [I-127, (R)-1-(1-(2-(2-cyano-6-fluorophenyl)-5-oxo-6,7-dihydro-5H-pyrrolo[3,4-b]pyridin-4-yl)-1H-pyrazol-3-yl)pyrrolidine-3-carbonitrile] |
| 0.1 to 10 | 0.1 to 10 | 30 to 100 | N#Cc1cccc(F)c1-c1cc(-n2ccc(N3C[C@@H]4OCCO[C@@H]4C3)n2)c2c(n1)CNC2=O [I-169, 3-fluoro-2-(4-(3-((4aR,7aS)-hexahydro-6H-[1,4]dioxino[2,3-c]pyrrol-6-yl)-1H-pyrazol-1-yl)-5-oxo-6,7-dihydro-5H-pyrrolo[3,4-b]pyridin-2-yl)benzonitrile] |
| 0.1 to 10 | 10 to 100 |  | CN(C)[C@H]1CC[C@H](Nc2ccn(-c3cc(-c4c(F)cccc4C#N)nc4c3C(=O)NC4)n2)CC1 [I-67, 2-(4-(3-(((1r,4r)-4-(dimethylamino)cyclohexyl)amino)-1H-pyrazol-1-yl)-5-oxo-6,7-dihydro-5H-pyrrolo[3,4-b]pyridin-2-yl)-3-fluorobenzonitrile] |
| 0.1 to 10 | 10 to 100 |  | N#Cc1cccc(F)c1-c1cc(-n2ccc(N3CCC[C@H](O)[C@H](O)C3)n2)c2c(n1)CNC2=O [I-115, 2-(4-(3-((3R,4S)-3,4-dihydroxyazepan-1-yl)-1H-pyrazol-1-yl)-5-oxo-6,7-dihydro-5H-pyrrolo[3,4-b]pyridin-2-yl)-3-fluorobenzonitrile] |
| 0.1 to 10 | 10 to 100 | 100 to 2000 | N#Cc1cccc(F)c1-c1cc(-n2ccc(N3CCCC(CO)C3)n2)c2c(n1)CNC2=O (centres unmarked) [I-86, 3-fluoro-2-(4-(3-(3-(hydroxymethyl)piperidin-1-yl)-1H-pyrazol-1-yl)-5-oxo-6,7-dihydro-5H-pyrrolo[3,4-b]pyridin-2-yl)benzonitrile] |
| 10 to 100 | 100 to 1000 |  | N#Cc1cccc(F)c1-c1cc(-n2ccc(CCO)n2)c2c(n1)CNC2=O [I-94, 3-fluoro-2-(4-(3-(2-hydroxyethyl)-1H-pyrazol-1-yl)-5-oxo-6,7-dihydro-5H-pyrrolo[3,4-b]pyridin-2-yl)benzonitrile] |
| 0.1 to 10 | 10 to 100 |  | [2H]C([2H])([2H])O[C@H]1CN(c2ccn(-c3cc(-c4c(F)cccc4C#N)nc4c3C(=O)NC4)n2)C[C@H]1O [I-199, 3-fluoro-2-(4-(3-((3R,4S)-3-hydroxy-4-(methoxy-d3)pyrrolidin-1-yl)-1H-pyrazol-1-yl)-5-oxo-6,7-dihydro-5H-pyrrolo[3,4-b]pyridin-2-yl)benzonitrile] |
| 0.1 to 10 |  | 30 to 100 | CO[C@@H]1CN(c2ccn(-c3cc(-c4c(F)cccc4C#N)nc4c3C(=O)NC4)n2)C[C@@H]1O [I-154, 3-fluoro-2-(4-(3-((3S,4R)-3-hydroxy-4-methoxypyrrolidin-1-yl)-1H-pyrazol-1-yl)-5-oxo-6,7-dihydro-5H-pyrrolo[3,4-b]pyridin-2-yl)benzonitrile] |
| ≥ 1000 | ≥ 1000 |  | COCCOC1CN(c2ccn(-c3cc(-c4c(F)cccc4C#N)nc4c3C(=O)NC4)n2)C1 [I-82, 3-fluoro-2-(4-(3-(3-(2-methoxyethoxy)azetidin-1-yl)-1H-pyrazol-1-yl)-5-oxo-6,7-dihydro-5H-pyrrolo[3,4-b]pyridin-2-yl)benzonitrile] |
| 0.1 to 10 | 10 to 100 |  | N#Cc1cccc(F)c1-c1cc(-n2ccc(N3CCC(N4CCCC4)CC3)n2)c2c(n1)CNC2=O [I-66, 3-fluoro-2-(5-oxo-4-(3-(4-(pyrrolidin-1-yl)piperidin-1-yl)-1H-pyrazol-1-yl)-6,7-dihydro-5H-pyrrolo[3,4-b]pyridin-2-yl)benzonitrile] |
| 0.1 to 10 | 0.1 to 10 |  | CO[C@H]1CN(c2ccn(-c3cc(-c4c(F)cccc4C#N)nc4c3C(=O)NC4)n2)C[C@H]1O [I-143, 3-fluoro-2-(4-(3-((3R,4S)-3-hydroxy-4-methoxypyrrolidin-1-yl)-1H-pyrazol-1-yl)-5-oxo-6,7-dihydro-5H-pyrrolo[3,4-b]pyridin-2-yl)benzonitrile] |
| 0.1 to 10 | 0.1 to 10 |  | N#Cc1cccc(F)c1-c1cc(-n2ccc(N3CCC(C#N)C3)n2)c2c(n1)CNC2=O (centres unmarked) [I-116, 1-(1-(2-(2-cyano-6-fluorophenyl)-5-oxo-6,7-dihydro-5H-pyrrolo[3,4-b]pyridin-4-yl)-1H-pyrazol-3-yl)pyrrolidine-3-carbonitrile] |
| 0.1 to 10 | 100 to 1000 |  | N#Cc1cccc(F)c1-c1cc(-n2ccc(N3CCOCC3=O)n2)c2c(n1)CNC2=O [I-138, 3-fluoro-2-(5-oxo-4-(3-(3-oxomorpholino)-1H-pyrazol-1-yl)-6,7-dihydro-5H-pyrrolo[3,4-b]pyridin-2-yl)benzonitrile] |

| SMILES | Ki (TYK2) [nM] | Ki (JAK2) [nM] | EC50 [1] [nM] |
| --- | --- | --- | --- |
| CS(=O)(=O)c1ccn(-c2cc(-c3c(F)cccc3C#N)nc3c2C(=O)NC3)n1 [I-81, 3-fluoro-2-(4-(3-(methylsulfonyl)-1H-pyrazol-1-yl)-5-oxo-6,7-dihydro-5H-pyrrolo[3,4-b]pyridin-2-yl)benzonitrile] | 10 to 100 | ≥ 1000 |  |
